These are literature values, as cited in patent EP0374725A2, “Transdermal therapeutic system having norpseudoephedrine as the active compound” (LTS Lohmann Therapie-Systeme GmbH & Co. KG, priority 1988, dated 1990).

The conditions of the series: background statement, amphetamines as medium-strong bases.

On to `C[C@H](N)[C@@H](O)c1ccccc1` [D-Norpseudoephedrin], for which the pka-Wert is 8,9.
